Reference: US20240360137A1 (Novartis AG, priority 2023, published 2024)
Values belong to the molecule of their own block, whether it stands above or below them.

Legend:
Assay in all cases: CDKi biochemical assay (TR-FRET, phosphorylation of S780 on RB1 peptide)
CDK6/cyclinD3 = CDK6/cyclinD3 (Homo sapiens, UniProt Q00534); details: CDK6/cyclinD3 10 pM, 1 mM ATP, 60 min at 25° C.
Summary of the method: (§1)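 Avi-tagged, biotinylated CDK4/cyclinD1 (20 pM) or CDK6/cyclinD3 (10 pM) phosphorylates 200 nM His-MBP-RB1[773-924] at S780 with 1 mM ATP in HEPES pH 7.5/MgCl2, 60 min, 25° C. After EDTA quench, Eu anti-pRB(S780)/SA-APC TR-FRET is read after 3 h. Apparent IC50 comes from % activity versus log concentration.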

CDK4/cyclinD1 = CDK4/cyclinD1 (Homo sapiens, UniProt P11802); details: CDK4/cyclinD1 20 pM, 1 mM ATP, 60 min at 25° C.
Summary of the method: as §1

CDK1/CyclinB1 = CDK1/CyclinB1 (Homo sapiens, UniProt P06493); details: CDK1/CyclinB1 10 pM, 1 mM ATP, 60 min at 25° C.
Summary of the method: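 CDK1/CyclinB1 (10 pM, Avi-tagged, insect-cell expressed) phosphorylated S780 of His-MBP-RB1[773-924] (200 nM) with 1 mM ATP in HEPES pH 7.5, 10 mM MgCl2, 1 mM DTT, 60 min at 25 °C. After EDTA quench, TR-FRET detection (Eu anti-pRB S780, SA-APC) for 3 h; apparent IC50 from percent activity versus log concentration.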

CDK2/CyclinE1 = CDK2/CyclinE1 (Homo sapiens, UniProt P24941); details: CDK2/CyclinE1 100 pM, 1 mM ATP, 60 min at 25° C.
Summary of the method: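 CDK2/CyclinE1 (Avi-tag, 100 pM; CDK2 E. coli-expressed) phosphorylated His-MBP-RB1[773-924] (200 nM) at S780 with 1 mM ATP in HEPES pH 7.5/MgCl2/DTT, 60 min at 25° C. After EDTA quench, TR-FRET detection ran 3 h (Eu anti-p-RB S780, SA-APC). Apparent IC50 came from percent activity versus log concentration.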

SMILES: O=C1N([C@@H]2CCC[C@@H](O)C2)c2nc(Nc3c[nH]nc3Cl)ncc2C12CC2 [Example 13, 2′-((3-chloro-1H-pyrazol-4-yl)amino)-7′-((1R,3R)-3-hydroxycyclohexyl)spiro[cyclopropane-1,5′-pyrrolo[2,3-d]pyrimidin]-6′(7′H)-one]
IC50 (CDK6/cyclinD3): 7100 nM
IC50 (CDK4/cyclinD1): 5280 nM
IC50 (CDK1/CyclinB1): 920 nM
IC50 (CDK2/CyclinE1): 12 nM

SMILES: O=C1N([C@@H]2CCC[C@@H](O)C2)c2nc(Nc3c[nH]nc3C3CCCCO3)ncc2C12CC2 (stereo partly drawn) [Example 10, 7′-((1R,3R)-3-hydroxycyclohexyl)-2′-((3-(tetrahydro-2H-pyran-2-yl)-1H-pyrazol-4-yl)amino)spiro[cyclopropane-1,5′-pyrrolo[2,3-d]pyrimidin]-6′(7′H)-one]
IC50 (CDK6/cyclinD3): ≥ 10000 nM
IC50 (CDK4/cyclinD1): ≥ 10000 nM
IC50 (CDK1/CyclinB1): ≥ 10000 nM
IC50 (CDK2/CyclinE1): 1220 nM

SMILES: CN1C[C@@H](F)[C@H](Oc2n[nH]cc2Nc2ncc3c(n2)N([C@@H]2CCC[C@@H](O)C2)C(=O)C32CC2)C1 [Example 50, 2′-((3-(((3R,4R)-4-fluoro-1-methylpyrrolidin-3-yl)oxy)-1H-pyrazol-4-yl)amino)-7′-((1R,3R)-3-hydroxycyclohexyl)spiro[cyclopropane-1,5′-pyrrolo[2,3-d]pyrimidin]-6′(7′H)-one]
IC50 (CDK6/cyclinD3): ≥ 10000 nM
IC50 (CDK4/cyclinD1): ≥ 10000 nM
IC50 (CDK1/CyclinB1): ≥ 10000 nM
IC50 (CDK2/CyclinE1): 125 nM

SMILES: Cc1n[nH]cc1Nc1ncc2c(n1)N([C@@H]1CCC[C@@H](O)C1)C(=O)C21CC1 [Example 2, 7′-((1R,3R)-3-hydroxycyclohexyl)-2′-((3-methyl-1H-pyrazol-4-yl)amino)spiro[cyclopropane-1,5′-pyrrolo[2,3-d]pyrimidin]-6′(7′H)-one]
IC50 (CDK6/cyclinD3): 6680 nM
IC50 (CDK4/cyclinD1): 4520 nM
IC50 (CDK1/CyclinB1): 1210 nM
IC50 (CDK2/CyclinE1): 18 nM

SMILES: O=C1N([C@@H]2CCC[C@@H](O)C2)c2nc(Nc3c[nH]nc3-c3cnn4ccncc34)ncc2C12CC2 [Example 64, 7′-((1R,3R)-3-hydroxycyclohexyl)-2′-((3-(pyrazolo[1,5-a]pyrazin-3-yl)-1H-pyrazol-4-yl)amino)spiro[cyclopropane-1,5′-pyrrolo[2,3-d]pyrimidin]-6′(7′H)-one]
IC50 (CDK6/cyclinD3): 6490 nM
IC50 (CDK4/cyclinD1): 4700 nM
IC50 (CDK1/CyclinB1): 2190 nM
IC50 (CDK2/CyclinE1): 12 nM

SMILES: CSCc1n[nH]cc1Nc1ncc2c(n1)N([C@@H]1CCC[C@@H](O)C1)C(=O)C21CC1 [Example 68, 7′-((1R,3R)-3-hydroxycyclohexyl)-2′-((3-((methylthio)methyl)-1H-pyrazol-4-yl)amino)spiro[cyclopropane-1,5′-pyrrolo[2,3-d]pyrimidin]-6′(7′H)-one]
IC50 (CDK6/cyclinD3): 7600 nM
IC50 (CDK4/cyclinD1): 4150 nM
IC50 (CDK1/CyclinB1): 970 nM
IC50 (CDK2/CyclinE1): 7 nM

SMILES: O=C1N([C@@H]2CCC[C@@H](O)C2)c2nc(Nc3c[nH]nc3OC[C@H]3CCOC3)ncc2C12CC2 [Example 72, 7′-((1R,3R)-3-hydroxycyclohexyl)-2′-((3-(((S)-tetrahydrofuran-3-yl)methoxy)-1H-pyrazol-4-yl)amino)spiro[cyclopropane-1,5′-pyrrolo[2,3-d]pyrimidin]-6′(7′H)-one]
IC50 (CDK6/cyclinD3): ≥ 10000 nM
IC50 (CDK4/cyclinD1): ≥ 10000 nM
IC50 (CDK1/CyclinB1): 7500 nM
IC50 (CDK2/CyclinE1): 61 nM

SMILES: Cn1cc(-c2n[nH]cc2Nc2ncc3c(n2)N([C@@H]2CCC[C@@H](O)C2)C(=O)C32CC2)cn1 [Example 80, 7′-((1R,3R)-3-hydroxycyclohexyl)-2′-((1′-methyl-1H,1′H-[3,4′-bipyrazol]-4-yl)amino)spiro[cyclopropane-1,5′-pyrrolo[2,3-d]pyrimidin]-6′(7′H)-one]
IC50 (CDK6/cyclinD3): ≥ 10000 nM
IC50 (CDK4/cyclinD1): 9300 nM
IC50 (CDK1/CyclinB1): 6010 nM
IC50 (CDK2/CyclinE1): 29 nM

SMILES: O=C1N([C@@H]2CCC[C@@H](O)C2)c2nc(Nc3c[nH]nc3-c3cnn4c3CCCC4)ncc2C12CC2 [Example 73, 7′-((1R,3R)-3-hydroxycyclohexyl)-2′-((3-(4,5,6,7-tetrahydropyrazolo[1,5-a]pyridin-3-yl)-1H-pyrazol-4-yl)amino)spiro[cyclopropane-1,5′-pyrrolo[2,3-d]pyrimidin]-6′(7′H)-one]
IC50 (CDK6/cyclinD3): ≥ 10000 nM
IC50 (CDK4/cyclinD1): ≥ 10000 nM
IC50 (CDK1/CyclinB1): ≥ 10000 nM
IC50 (CDK2/CyclinE1): 49 nM

Molecules with a lower IC50 (CDK6/cyclinD3), results first:

IC50 (CDK6/cyclinD3): 6280 nM
IC50 (CDK4/cyclinD1): 3130 nM
IC50 (CDK1/CyclinB1): 800 nM
IC50 (CDK2/CyclinE1): 10 nM
SMILES: O=C1N([C@@H]2CCC[C@@H](O)C2)c2nc(Nc3c[nH]nc3OCC(F)(F)F)ncc2C12CC2 [Example 56, 7′-((1R,3R)-3-hydroxycyclohexyl)-2′-((3-(2,2,2-trifluoroethoxy)-1H-pyrazol-4-yl)amino)spiro[cyclopropane-1,5′-pyrrolo[2,3-d]pyrimidin]-6′(7′H)-one]

IC50 (CDK6/cyclinD3): 6030 nM
IC50 (CDK4/cyclinD1): 2610 nM
IC50 (CDK1/CyclinB1): 800 nM
IC50 (CDK2/CyclinE1): 6 nM
SMILES: O=C1N([C@@H]2CCC[C@@H](O)C2)c2nc(Nc3c[nH]nc3O[C@H]3CC3(F)F)ncc2C12CC2 [Example 69]

IC50 (CDK6/cyclinD3): 5730 nM
IC50 (CDK4/cyclinD1): 6690 nM
IC50 (CDK1/CyclinB1): ≥ 10000 nM
IC50 (CDK2/CyclinE1): 1120 nM
SMILES: Cc1cc(Nc2ncc3c(n2)N([C@@H]2CCC[C@@H](O)C2)C(=O)C32CC2)[nH]n1 [Example 5, 7′-((1R,3R)-3-hydroxycyclohexyl)-2′-((3-methyl-1H-pyrazol-5-yl)amino)spiro[cyclopropane-1,5′-pyrrolo[2,3-d]pyrimidin]-6′(7′H)-one]

IC50 (CDK6/cyclinD3): 4460 nM
IC50 (CDK4/cyclinD1): 2260 nM
IC50 (CDK1/CyclinB1): 2500 nM
IC50 (CDK2/CyclinE1): 17 nM
SMILES: COCc1n[nH]cc1Nc1ncc2c(n1)N([C@@H]1CCC[C@@H](O)C1)C(=O)C21CC1 [Example 21, 7′-((1R,3R)-3-hydroxycyclohexyl)-2′-((3-(methoxymethyl)-1H-pyrazol-4-yl)amino)spiro[cyclopropane-1,5′-pyrrolo[2,3-d]pyrimidin]-6′(7′H)-one]

IC50 (CDK6/cyclinD3): 3310 nM
IC50 (CDK4/cyclinD1): 3310 nM
IC50 (CDK1/CyclinB1): 2310 nM
IC50 (CDK2/CyclinE1): 10 nM
SMILES: O=C1N([C@@H]2CCC[C@@H](O)C2)c2nc(Nc3c[nH]nc3-c3cnn(C(F)F)c3)ncc2C12CC2 [Example 34, 2′-((1′-(difluoromethyl)-1H,1′H-[3,4′-bipyrazol]-4-yl)amino)-7′-((1R,3R)-3-hydroxycyclohexyl)spiro[cyclopropane-1,5′-pyrrolo[2,3-d]pyrimidin]-6′(7′H)-one]

IC50 (CDK6/cyclinD3): 2180 nM
IC50 (CDK4/cyclinD1): 840 nM
IC50 (CDK1/CyclinB1): 2940 nM
IC50 (CDK2/CyclinE1): 32 nM
SMILES: O=C1N([C@@H]2CCC[C@@H](O)C2)c2nc(Nc3c[nH]nc3CO)ncc2C12CC2 [Example 6, 7′-((1R,3R)-3-hydroxycyclohexyl)-2′-((3-(hydroxymethyl)-1H-pyrazol-4-yl)amino)spiro[cyclopropane-1,5′-pyrrolo[2,3-d]pyrimidin]-6′(7′H)-one]

IC50 (CDK6/cyclinD3): 1800 nM
IC50 (CDK4/cyclinD1): 1230 nM
IC50 (CDK1/CyclinB1): 2360 nM
IC50 (CDK2/CyclinE1): 49 nM
SMILES: COCCn1cc(Nc2ncc3c(n2)N([C@@H]2CCC[C@@H](O)C2)C(=O)C32CC2)cn1 [Example 16, 7′-((1R,3R)-3-hydroxycyclohexyl)-2′-((1-(2-methoxyethyl)-1H-pyrazol-4-yl)amino)spiro[cyclopropane-1,5′-pyrrolo[2,3-d]pyrimidin]-6′(7′H)-one]

IC50 (CDK6/cyclinD3): 600 nM
IC50 (CDK4/cyclinD1): 400 nM
IC50 (CDK1/CyclinB1): 1540 nM
IC50 (CDK2/CyclinE1): 38 nM
SMILES: Cn1cc(Nc2ncc3c(n2)N([C@@H]2CCC[C@@H](O)C2)C(=O)C32CC2)cn1 [Example 1, 7′-((1R,3R)-3-hydroxycyclohexyl)-2′-((1-methyl-1H-pyrazol-4-yl)amino)spiro[cyclopropane-1,5′-pyrrolo[2,3-d]pyrimidin]-6′(7′H)-one]
